Experimental data as given in the supplement of paper PMC10331698.
± gives the standard deviation of the averaged measurements.

Columns and labels:
Test in all cases: level (log10 ratio to DMSO vehicle control); higher = higher biomarker level / cell amount than vehicle control
[1] = compound: O=C(O)C(F)(F)OC(F)(F)C(F)(F)OC(F)(F)C(F)(F)OC(F)(F)C(F)(F)C(F)(F)C(F)(F)F [Perfluoro-3,6,9-trioxatridecanoic acid] (in DMSO); conditions: 6700 nM
Procedure: (§1)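 BioMAP Diversity Plus panel of 12 human primary cell co-culture systems (3C, 4H, LPS, SAg, BT, BF4T, BE3C, CASM3C, HDF3CGF, KF3CT, MyoF, Mphg). Compounds were added 1 h before stimulation and left for 24 h (MyoF 48 h; BT 72 h for soluble read-outs or 6 d for IgG). Biomarkers were read by ELISA, cytotoxicity by SRB, PBMC viability and proliferation by Alamar Blue. Each well value was divided by the mean of 8 DMSO control wells on the same plate and log10 transformed; duplicate blinded samples were tested at 4 concentrations.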

[2] = compound: CN(C(=O)C(F)(F)C(F)(F)C(F)(F)F)[Si](C)(C)C [N-Methyl-N-trimethylsilylheptafluorobutyramide] (in DMSO)
Procedure: as §1

Perfluorononanoic acid = compound: O=C(O)C(F)(F)C(F)(F)C(F)(F)C(F)(F)C(F)(F)C(F)(F)C(F)(F)C(F)(F)F [Perfluorononanoic acid] (in DMSO)
Procedure: as §1

[3] = compound: OCC(F)(F)C(F)(F)C(F)(F)C(F)F [1H,1H,5H-Perfluoropentanol] (in DMSO)
Procedure: as §1

[4] = compound: NS(=O)(=O)C(F)(F)C(F)(F)C(F)(F)C(F)(F)C(F)(F)C(F)(F)C(F)(F)C(F)(F)F [Perfluorooctanesulfonamide] (in DMSO)
Procedure: as §1

Octafluoroadipic acid = compound: O=C(O)C(F)(F)C(F)(F)C(F)(F)C(F)(F)C(=O)O [Octafluoroadipic acid] (in DMSO)
Procedure: as §1

[5] = compound: C=C(C)C(=O)OCCC(F)(F)C(F)(F)C(F)(F)C(F)(F)C(F)(F)C(F)(F)C(F)(F)C(F)(F)F [8:2 Fluorotelomer methacrylate] (in DMSO)
Procedure: as §1

[6] = compound: O=C(O)CCC(F)(C(F)(F)F)C(F)(F)F [4,4-bis(Trifluoromethyl)-4-fluoropropanoic acid] (in DMSO)
Procedure: as §1

Test System | level (log10) [1] | level (log10) ([2]; 6700 nM) | level (log10) ([2]; 20000 nM) | level (log10) ([2]; 60000 nM) | level (log10) (Perfluorononanoic acid; 6700 nM) | level (log10) (Perfluorononanoic acid; 20000 nM) | level (log10) ([3]; 6700 nM) | level (log10) ([3]; 20000 nM) | level (log10) ([3]; 60000 nM) | level (log10) ([4]; 6700 nM) | level (log10) ([4]; 20000 nM) | level (log10) (Octafluoroadipic acid; 6700 nM) | level (log10) (Octafluoroadipic acid; 20000 nM) | level (log10) (Octafluoroadipic acid; 60000 nM) | level (log10) ([5]; 6700 nM) | level (log10) ([5]; 20000 nM) | level (log10) ([6]; 6700 nM) | level (log10) ([6]; 20000 nM) | level (log10) ([6]; 60000 nM)
3C:CD87/uPAR | 0.0095 ± 0.028 | -0.0105 ± 0.0021 | -0.0155 ± 0.0078 | -0.007 ± 0.0042 | 0.002 ± 0.011 | -0.018 ± 0.016 | -0.0135 ± 0.019 | 0.0015 ± 0.011 | -0.0095 ± 0.013 | 0.006 ± 0.0099 | -0.0425 ± 0.016 | -0.023 ± 0.0057 | -0.0175 ± 0.025 | -0.014 ± 0.021 | 0.046 ± 0.018 | 0.049 ± 0.013 | 0.051 ± 0.0057 | 0.0265 ± 0.0078 | 0.0295 ± 0.044
3C:CXCL8/IL-8 | -0.003 ± 0.027 | -0.016 ± 0.0071 | -0.017 ± 0.0042 | 0.007 ± 0.017 | 0.0175 ± 0.0021 | 0.0475 ± 0.013 | 0.0115 ± 0.023 | 0.0035 ± 0.03 | 0.0545 ± 0.063 | 0.012 ± 0.018 | 0.0635 ± 0.0064 | 0.001 ± 0.024 | -0.0095 ± 0.005 | 0.0215 ± 0.025 | -0.005 ± 0.017 | 0.0305 ± 0.012 | 0.0215 ± 0.039 | 0.014 ± 0.055 | 0.0285 ± 0.054
3C:CXCL9/MIG | 0.0115 ± 0.00071 | -0.0045 ± 0.0035 | -0.0005 ± 0.0035 | 0.0065 ± 0.0092 | -0.0085 ± 0.0064 | 0.0045 ± 0.0064 | 0 ± 0.0057 | -0.0035 ± 0.0064 | 0.0105 ± 0.00071 | 0.0225 ± 0.021 | 0.006 ± 0.028 | -0.002 ± 0.0028 | -0.0095 ± 0.015 | 0.006 ± 0.0085 | -0.002 ± 0.0028 | 0.0055 ± 0.0035 | 0.006 ± 0.0071 | -0.0075 ± 0.0035 | 0.0015 ± 0.0064
3C:HLA-DR | -0.018 ± 0.04 | 0.0015 ± 0.015 | 0.0045 ± 0.012 | 0.0285 ± 0.033 | -0.024 ± 0.033 | 0.017 ± 0.021 | -0.02 ± 0.0028 | -0.0075 ± 0.025 | 0.0385 ± 0.023 | -0.0115 ± 0.043 | -0.118 ± 0.082 | -0.007 ± 0.0099 | -0.004 ± 0.021 | 0.0035 ± 0.0078 | -0.0035 ± 0.035 | 0.0115 ± 0.028 | -0.0125 ± 0.023 | -0.0085 ± 0.012 | -0.0065 ± 0.0035
3C:Proliferation | 0.0425 ± 0.016 | -0.0305 ± 0.0092 | 0.003 ± 0.027 | -0.005 ± 0.0057 | 0.0095 ± 0.073 | 0.0795 ± 0.03 | -0.0045 ± 0.066 | 0.005 ± 0.0071 | -0.033 ± 0.093 | -0.039 ± 0.0099 | -0.208 ± 0.02 | -0.0705 ± 0.005 | 0.016 ± 0.013 | -0.007 ± 0.03 | -0.0315 ± 0.005 | -0.07 ± 0.034 | -0.05 ± 0.051 | -0.015 ± 0.058 | 0.0345 ± 0.03
3C:SRB | -0.002 ± 0.014 | 0.0135 ± 0.013 | 0.0035 ± 0.032 | 0.0075 ± 0.011 | -0.002 ± 0.0042 | -0.003 | -0.011 | -0.006 ± 0.03 | -0.015 ± 0.011 | 0.0135 ± 0.022 | -0.088 ± 0.0042 | -0.007 ± 0.016 | -0.0045 ± 0.011 | -0.016 ± 0.0028 | -0.0205 ± 0.0035 | -0.01 ± 0.021 | -0.001 ± 0.0057 | 0.0045 ± 0.019 | 0.0125 ± 0.0078
4H:CCL2/MCP-1 | -0.029 ± 0.0099 | -0.0405 ± 0.028 | -0.0525 ± 0.039 | 0.0195 ± 0.11 | -0.074 ± 0.013 | -0.0405 ± 0.005 | -0.0265 ± 0.046 | -0.0115 ± 0.033 | 0.039 ± 0.055 | -0.093 ± 0.023 | -0.124 ± 0.0021 | -0.03 ± 0.018 | -0.0365 ± 0.025 | 0.03 ± 0.024 | -0.0075 ± 0.053 | 0.027 ± 0.034 | 0.016 ± 0.024 | 0.0275 ± 0.03 | 0.023 ± 0.047
4H:CCL26/Eotaxin-3 | -0.007 ± 0.038 | -0.0005 ± 0.005 | -0.001 | -0.003 ± 0.024 | -0.008 ± 0.0071 | -0.03 ± 0.018 | -0.008 ± 0.011 | 0.008 ± 0.0085 | -0.005 ± 0.0071 | -0.0145 ± 0.013 | -0.03 ± 0.042 | 0.022 ± 0.016 | 0.0185 ± 0.0092 | 0.016 ± 0.027 | 0.0035 ± 0.037 | 0 ± 0.02 | -0.0225 ± 0.0064 | 0.006 ± 0.033 | -0.0015 ± 0.049
4H:CD62P/P-selectin | 0.033 ± 0.023 | -0.0065 ± 0.067 | -0.011 ± 0.052 | 0.002 ± 0.047 | 0.015 ± 0.0099 | 0.0605 ± 0.011 | -0.0245 ± 0.0021 | 0.0205 ± 0.061 | 0.027 ± 0.038 | 0.028 ± 0.014 | -0.0235 ± 0.018 | -0.0075 ± 0.043 | 0.0065 ± 0.042 | -0.007 ± 0.059 | -0.02 ± 0.02 | -0.0375 ± 0.0035 | -0.0155 ± 0.022 | -0.032 ± 0.031 | 0.005 ± 0.086
4H:CD87/uPAR | 0.0145 ± 0.03 | 0.011 ± 0.021 | 0.0135 ± 0.016 | 0.0055 ± 0.019 | -0.0245 ± 0.026 | -0.012 ± 0.0071 | -0.0225 ± 0.0092 | 0.0025 ± 0.019 | 0.007 ± 0.034 | 0.0155 ± 0.0064 | -0.026 ± 0.028 | 0.04 ± 0.0071 | 0.039 ± 0.011 | 0.0345 ± 0.0064 | -0.0325 ± 0.0035 | -0.0345 ± 0.042 | -0.0095 ± 0.056 | 0.0235 ± 0.035 | 0.0275 ± 0.067
4H:CD106/VCAM-1 | -0.023 ± 0.0085 | -0.011 | -0.0305 ± 0.049 | -0.023 ± 0.065 | -0.0245 ± 0.032 | -0.029 ± 0.0071 | -0.0075 ± 0.0035 | 0.0115 ± 0.0021 | 0.018 ± 0.021 | 0.013 ± 0.034 | -0.0335 ± 0.044 | -0.003 ± 0.0028 | -0.007 ± 0.018 | -0.007 ± 0.017 | -0.035 ± 0.018 | -0.0485 ± 0.0064 | -0.014 ± 0.0042 | -0.004 | -0.0205 ± 0.022
4H:SRB | 0.0035 ± 0.0092 | 0.005 ± 0.0085 | 0.0055 ± 0.022 | -0.003 ± 0.011 | 0.002 ± 0.0014 | -0.008 ± 0.0042 | -0.003 ± 0.0014 | 0.011 ± 0.0042 | 0.0065 ± 0.005 | -0.005 ± 0.011 | -0.0815 ± 0.0021 | -0.002 ± 0.013 | 0.0025 ± 0.00071 | -0.0105 ± 0.0035 | -0.0205 ± 0.028 | -0.0105 ± 0.042 | -0.008 | -0.0125 ± 0.011 | 0.014 ± 0.02
4H:VEGFR2 | -0.0515 ± 0.047 | 0.006 ± 0.0057 | 0.003 ± 0.0099 | 0.019 ± 0.042 | -0.0565 ± 0.039 | -0.033 ± 0.0099 | -0.021 ± 0.028 | -0.0215 ± 0.0021 | 0.0395 ± 0.073 | -0.0175 ± 0.035 | -0.006 ± 0.044 | 0.0205 ± 0.029 | 0.0085 ± 0.05 | 0.0155 ± 0.042 | 0.028 ± 0.023 | 0.015 ± 0.05 | 0.0265 ± 0.054 | 0.0195 ± 0.044 | 0.03 ± 0.045
BE3C:CD54/ICAM-1 | -0.688 ± 0.018 | -0.0005 ± 0.005 | 0.0045 ± 0.0064 | 0.001 ± 0.0028 | -0.004 ± 0.034 | 0.0095 ± 0.0035 | 0.0095 ± 0.042 | 0.02 ± 0.0014 | 0.0175 ± 0.028 | -0.008 ± 0.016 | -0.001 ± 0.018 | -0.0085 ± 0.0078 | -0.0045 ± 0.013 | 0.01 ± 0.031 | -0.012 ± 0.018 | 0.002 ± 0.061 | -0.007 | -0.019 ± 0.014 | -0.002 ± 0.0099
